{
  "source": "paper PMC11743413",
  "about": "(Bioresources and Bioprocessing, 2025)",
  "target": "T1, SerE (Corynebacterium glutamicum, UniProt Q8NSR3)",
  "T1 construct": "gene Cgl0605",
  "T1 sequence (Q8NSR3 1-307)": "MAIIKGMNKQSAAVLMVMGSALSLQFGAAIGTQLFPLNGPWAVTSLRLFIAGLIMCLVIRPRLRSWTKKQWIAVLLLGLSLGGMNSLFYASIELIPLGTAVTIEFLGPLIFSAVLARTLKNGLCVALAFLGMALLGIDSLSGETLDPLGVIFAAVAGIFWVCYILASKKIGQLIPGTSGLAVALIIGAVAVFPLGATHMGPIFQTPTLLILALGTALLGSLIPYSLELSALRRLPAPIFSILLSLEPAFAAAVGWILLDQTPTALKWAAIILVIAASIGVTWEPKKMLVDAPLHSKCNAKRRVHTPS",
  "details": "L-proline released from Pro-Gly in the cells; acid-ninhydrin assay",
  "data": [
    {"compound": "O=C(O)[C@@H]1CCCN1", "note": "[L-proline]", "values": [
      {"measurement": "amino acid export assay after Pro-Gly dipeptide addition; serE deletion versus o", "value": "SerE is indeed as an L-proline exporter"}
    ]}
  ]
}
